Source: PMC11944513, “Investigation on Human Carbonic Anhydrase IX and XII Inhibitory Activity and A549 Antiproliferative Activity of a New Class of Coumarinamides” (Pharmaceuticals, 2025)
pKi: −log10 of the molar value.

Assays:
h-CA XII = h-CA XII (Homo sapiens, UniProt O43570); test: stopped-flow CO2 hydrase assay, h-CA XII
h-CA IX = h-CA IX (Homo sapiens, UniProt Q16790); test: stopped-flow CO2 hydrase assay, h-CA IX
h-CA II = h-CA II (Homo sapiens, UniProt P00918); test: stopped-flow CO2 hydrase assay, h-CA II
h-CA I = h-CA I (Homo sapiens, UniProt P00915); test: stopped-flow CO2 hydrase assay, h-CA I
Chain of h-CA I (P00915 whole entry): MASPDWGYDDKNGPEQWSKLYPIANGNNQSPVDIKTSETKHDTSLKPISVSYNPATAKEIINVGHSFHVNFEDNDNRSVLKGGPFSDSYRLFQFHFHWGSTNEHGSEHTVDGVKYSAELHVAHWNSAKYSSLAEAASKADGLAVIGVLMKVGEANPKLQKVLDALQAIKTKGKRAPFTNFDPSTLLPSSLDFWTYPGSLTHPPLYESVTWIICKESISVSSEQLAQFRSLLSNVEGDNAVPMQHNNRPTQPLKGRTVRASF

Chain of h-CA XII (O43570 25-354): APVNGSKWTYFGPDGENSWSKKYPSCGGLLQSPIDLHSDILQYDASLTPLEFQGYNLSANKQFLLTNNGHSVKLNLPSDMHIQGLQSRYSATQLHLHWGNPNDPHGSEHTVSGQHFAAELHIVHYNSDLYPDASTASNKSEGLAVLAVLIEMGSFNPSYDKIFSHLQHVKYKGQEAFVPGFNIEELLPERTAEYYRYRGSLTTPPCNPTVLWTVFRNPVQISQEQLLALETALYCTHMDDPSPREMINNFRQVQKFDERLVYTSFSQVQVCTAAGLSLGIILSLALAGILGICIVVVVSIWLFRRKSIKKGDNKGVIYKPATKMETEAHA

pKi (h-CA XII)	pKi (h-CA IX)	pKi (h-CA II)	pKi (h-CA I)	Structure (SMILES)
4.17	4.09	< 4.00	< 4.00	O=C(NCCc1ccc(F)cc1)c1cc2ccc(O)cc2oc1=O [Compound 28, N-(4-Fluorophenethyl)-7-Hydroxy-2-Oxo-2H-Chromene-3-Carboxamide]
4.37	4.47	< 4.00	< 4.00	O=C(NCc1cccc(Cl)c1)c1cc2ccc(O)cc2oc1=O [Compound 20, N-(3-Chlorobenzyl)-7-Hydroxy-2-Oxo-2H-Chromene-3-Carboxamide]
4.27	4.08	< 4.00	< 4.00	O=C(NCc1ccc(C(F)(F)F)cc1)c1cc2ccc(O)cc2oc1=O [Compound 17, 7-Hydroxy-2-Oxo-N-(4-(Trifluoromethyl)benzyl)-2H-Chromene-3-Carboxamide]
4.24	4.14	< 4.00	< 4.00	O=C(NCc1cccc(F)c1)c1cc2ccc(O)cc2oc1=O [Compound 14, N-(3-Fluorobenzyl)-7-Hydroxy-2-Oxo-2H-Chromene-3-Carboxamide]
4.58	4.22	< 4.00	< 4.00	O=C(NCc1ccc(Br)cc1)c1cc2ccc(O)cc2oc1=O [Compound 18, N-(4-Bromobenzyl)-7-Hydroxy-2-Oxo-2H-Chromene-3-Carboxamide]
4.14	4.20	< 4.00	< 4.00	COc1cccc(CNC(=O)c2cc3ccc(O)cc3oc2=O)c1 [Compound 10, 7-Hydroxy-N-(3-Methoxybenzyl)-2-Oxo-2H-Chromene-3-Carboxamide]
4.15	4.06	< 4.00	< 4.00	O=C(NCc1ccc(F)cc1)c1cc2ccc(O)cc2oc1=O [Compound 13, N-(4-Fluorobenzyl)-7-Hydroxy-2-Oxo-2H-Chromene-3-Carboxamide]
4.40	4.09	< 4.00	< 4.00	O=C(NCc1ccc(Cl)cc1)c1cc2ccc(O)cc2oc1=O [Compound 21, N-(4-Chlorobenzyl)-7-Hydroxy-2-Oxo-2H-Chromene-3-Carboxamide]

Second part, the compound before the results:

Structure (SMILES)	pKi (h-CA XII)	pKi (h-CA IX)	pKi (h-CA II)	pKi (h-CA I)
O=C(c1cc2ccc(O)cc2oc1=O)N1CCN(c2ccccc2[N+](=O)[O-])CC1 [Compound 40, 7-Hydroxy-3-(4-(2-Nitrophenyl)piperazine-1-Carbonyl)-2H-Chromen-2-One]	4.20	4.07	< 4.00	< 4.00
O=C(c1cc2ccc(O)cc2oc1=O)N1CCN(Cc2ccccc2)CC1 [Compound 31, 3-(4-Benzylpiperazine-1-Carbonyl)-7-Hydroxy-2H-Chromen-2-One]	4.23	4.08	< 4.00	< 4.00
COc1ccc(CCNC(=O)c2cc3ccc(O)cc3oc2=O)cc1OC [Compound 27, N-(3,4-Dimethoxyphenethyl)-7-Hydroxy-2-Oxo-2H-Chromene-3-Carboxamide]	4.29	4.07	< 4.00	< 4.00
O=C(c1cc2ccc(O)cc2oc1=O)N1CCN(c2cccc([N+](=O)[O-])c2)CC1 [Compound 41, 7-Hydroxy-3-(4-(3-Nitrophenyl)piperazine-1-Carbonyl)-2H-Chromen-2-One]	4.32	4.60	< 4.00	< 4.00
Cc1cc(C)cc(N2CCN(C(=O)c3cc4ccc(O)cc4oc3=O)CC2)c1 [Compound 39, 3-(4-(3,5-Dimethylphenyl)piperazine-1-Carbonyl)-7-Hydroxy-2H-Chromen-2-One]	4.33	4.17	< 4.00	< 4.00
Cc1cccc(N2CCN(C(=O)c3cc4ccc(O)cc4oc3=O)CC2)c1C [Compound 35, 3-(4-(2,3-Dimethylphenyl)piperazine-1-Carbonyl)-7-Hydroxy-2H-Chromen-2-One]	4.38	4.09	< 4.00	< 4.00
O=C(NCc1c(Cl)cccc1Cl)c1cc2ccc(O)cc2oc1=O [Compound 24, N-(2,6-Dichlorobenzyl)-7-Hydroxy-2-Oxo-2H-Chromene-3-Carboxamide]	4.12	4.07	< 4.00	< 4.00
O=C(NCc1cccc([N+](=O)[O-])c1)c1cc2ccc(O)cc2oc1=O [Compound 12, 7-Hydroxy-N-(3-Nitrobenzyl)-2-Oxo-2H-Chromene-3-Carboxamide]	4.26	4.19	< 4.00	< 4.00
Cc1cccc(N2CCN(C(=O)c3cc4ccc(O)cc4oc3=O)CC2)c1 [Compound 33, 7-Hydroxy-3-(4-(m-tolyl)piperazine-1-Carbonyl)-2H-Chromen-2-One]	4.39	4.05	< 4.00	< 4.00
Cc1ccc(N2CCN(C(=O)c3cc4ccc(O)cc4oc3=O)CC2)cc1 [Compound 34, 7-Hydroxy-3-(4-(p-tolyl)piperazine-1-Carbonyl)-2H-Chromen-2-One]	4.25	4.08	< 4.00	< 4.00
O=C(c1cc2ccc(O)cc2oc1=O)N1CCN(c2ccc([N+](=O)[O-])cc2)CC1 [Compound 42, 7-Hydroxy-3-(4-(4-Nitrophenyl)piperazine-1-Carbonyl)-2H-Chromen-2-One]	4.20	4.52	< 4.00	< 4.00
O=C(NCc1ccccc1C(F)(F)F)c1cc2ccc(O)cc2oc1=O [Compound 15, 7-Hydroxy-2-Oxo-N-(2-(Trifluoromethyl)benzyl)-2H-Chromene-3-Carboxamide]	4.50	4.30	< 4.00	< 4.00
Cc1ccc(N2CCN(C(=O)c3cc4ccc(O)cc4oc3=O)CC2)c(C)c1 [Compound 36, 3-(4-(2,4-Dimethylphenyl)piperazine-1-Carbonyl)-7-Hydroxy-2H-Chromen-2-One]	4.16	4.11	< 4.00	< 4.00
COc1cccc(N2CCN(C(=O)c3cc4ccc(O)cc4oc3=O)CC2)c1 [Compound 43, 7-Hydroxy-3-(4-(3-Methoxyphenyl)piperazine-1-Carbonyl)-2H-Chromen-2-One]	4.10	4.39	< 4.00	< 4.00
O=C(NCc1cccc(C(F)(F)F)c1)c1cc2ccc(O)cc2oc1=O [Compound 16, 7-Hydroxy-2-Oxo-N-(3-(Trifluoromethyl)benzyl)-2H-Chromene-3-Carboxamide]	4.19	4.11	< 4.00	< 4.00
COc1ccc(CCNC(=O)c2cc3ccc(O)cc3oc2=O)cc1 [Compound 26, 7-Hydroxy-N-(4-Methoxyphenethyl)-2-Oxo-2H-Chromene-3-Carboxamide]	4.24	4.09	< 4.00	< 4.00
COc1ccccc1CNC(=O)c1cc2ccc(O)cc2oc1=O [Compound 8, 7-Hydroxy-N-(2-Methoxybenzyl)-2-Oxo-2H-Chromene-3-Carboxamide]	4.15	4.11	< 4.00	< 4.00
Cc1ccc(C)c(N2CCN(C(=O)c3cc4ccc(O)cc4oc3=O)CC2)c1 [Compound 37, 3-(4-(2,5-Dimethylphenyl)piperazine-1-Carbonyl)-7-Hydroxy-2H-Chromen-2-One]	4.20	4.12	< 4.00	< 4.00
